Measured values: US9062284B2, “Uses and detection of herbicide resistance genes for resistance to aryloxyalkanoate herbicides” (Dow ArgoSciences LLC, priority 2007, dated 2015)

Columns and labels:
[1] = test system: AAD-13 (v1) transformed T1 Arabidopsis; assay: Postemergence herbicide response of AAD-13 (v1) T1 Arabidopsis; assay type: in vivo, Arabidopsis thaliana; details: 14 DAT
Description: Seven days after planting (DAP) and again 11 DAP, T1 plants (cotyledon and 2-4-lf stage, respectively) were sprayed with a 0.2% solution of Liberty herbicide (200 g ai/L glufosinate, Bayer Crop Sciences, Kansas City, Mo.) at a spray volume of 10 ml/tray (703 L/ha) using a DeVilbiss compressed air spray tip to deliver an effective rate of 280 g ai/ha glufosinate per application. Survivors (plants actively growing) were identified 4-7 days after the final spraying and transplanted individually into 3-inch pots prepared with potting media (Metro Mix 360). Transplanted plants were covered with humidity domes for 3-4 days and placed in a 22° C. growth chamber as before or moved to directly to the greenhouse. Domes were subsequently removed and plants reared in the greenhouse (22±5° C., 50±30% RH, 14 h light:10 dark, minimum 500 μE/m^2s^1 natural+supplemental light) at least 1 day prior to testing for the ability of AAD-13 (v1) to provide phenoxy auxin herbicide resistance.
T1 plants were then randomly assigned to various rates of 2,4-D. For Arabidopsis, 50 g ae/ha 2,4-D is an effective dose to distinguish sensitive plants from ones with meaningful levels of resistance. Elevated rates were also applied to determine relative levels of resistance (280, 560, 1120, or 2240 g ae/ha). Tables 11 and 12 show comparisons drawn to an aryloxyalkanoate herbicide resistance gene (AAD-12 (v1)) previously described in PCT/US2006/042133.
(§1) All auxin herbicide applications were made using the DeVilbiss sprayer as described above to apply 703 L/ha spray volume (0.4 ml solution/3-inch pot) or applied by track sprayer in a 187 L/ha spray volume. 2,4-D used was either technical grade (Sigma, St. Louis, Mo.) dissolved in DMSO and diluted in water (<1% DMSO final concentration) or the commercial dimethylamine salt formulation (456 g ae/L, NuFarm, St Joseph, Mo.). Dichlorprop used was commercial grade formulated as potassium salt of R-dichlorprop (600 g ai/L, AH Marks). As herbicide rates increased beyond 800 g ae/ha, the pH of the spray solution became exceedingly acidic, burning the leaves of young, tender Arabidopsis plants and complicating evaluation of the primary effects of the herbicides.
The first Arabidopsis transformations were conducted using AAD-13 (v1) (plant optimized gene). T1 transformants were first selected from the background of untransformed seed using a glufosinate selection scheme. Over 160,000 T1 seed were screened and 238 glufosinate resistant plants were identified (PAT gene), equating to a transformation/selection frequency of 0.15% which lies in the normal range of selection frequency of constructs where PAT+Liberty are used for selection. T1 plants selected above were subsequently transplanted to individual pots and sprayed with various rates of commercial aryloxyalkanoate herbicides. Table 11 compares the response of AAD-13 (v1) and control genes to impart 2,4-D resistance to Arabidopsis T1 transformants. Response is presented in terms of % visual injury 2 WAT. […] An arithmetic mean and standard deviation is presented for each treatment. The range in individual response is also indicated in the last column for each rate and transformation. PAT/Cry1F-transformed Arabidopsis served as an auxin-sensitive transformed control. The AAD-13 (v1) gene imparted herbicide resistance to individual T1 Arabidopsis plants. Within a given treatment, the level of plant response varied greatly and can be attributed to the fact each plant represents an independent transformation event. Of important note, at each 2,4-D rate tested, there were individuals that were unaffected while some were severely affected. […] At high rates the spray solution becomes highly acidic unless buffered therefore some of the injury may be attributed to the acidity of the spray solution. Arabidopsis grown mostly in the growth chamber has a very thin cuticle and severe burning effects can complicate testing at these elevated rates. […]

[2] = test system: AAD-13 (v1) gene T0 tobacco plants; assay: 2,4-D DMA response of AAD-13 (v1) T0 tobacco; assay type: in vivo, Nicotiana tabacum; details: for % Injury 20-40% (individuals) / % Injury <20% (individuals) / % Injury >40% (individuals) / % Injury Ave: 14 days after application
Text: Following the acclimation in the greenhouse T0 plants were then randomly assigned to various rates of 2,4-D DMA ranging from 140 to 2240 g ae/ha at […] increments. For tobacco, 140 g ae/ha 2,4-D is an effective dose to distinguish sensitive plants from ones with meaningful levels of resistance.

[3] = test system: Wildtype (untransformed control) Arabidopsis; assay: R-dichlorprop response of wildtype Arabidopsis; assay type: in vivo, Arabidopsis thaliana; details: 800 g ae/ha postemergence, 14 DAT
Description: as §1
The fact that AAD-1 (v3) will metabolize R-dichlorprop well enough to impart commercially acceptable tolerance is one distinguishing characteristic that separates the three genes (Table 12 and Example 7 of PCT/US2006/042133 (Wright et al., filed Oct. 27, 2006). AAD-1 and AAD-13 are considered R- and S-specific α-ketoglutarate dioxygenases, respectively.

[4] = test system: Segregating T2 AAD-13 (v1) Arabidopsis plants (pDAB4114.01.094); assay: Foliar pyridyloxyacetate response of segregating T2 AAD-13 (v1) Arabidopsis; assay type: in vivo, Arabidopsis thaliana
Description: The ability of AAD-13 (v1) to provide resistance to other aryloxyalkanoate auxin herbicides in transgenic Arabidopsis was determined by foliar application of various substrates. T2 generation Arabidopsis seed was stratified, and sown into selection trays much like that of Arabidopsis (Example 6.4). A transformed-control line containing PAT and the insect resistance gene Cry1F was planted in a similar manner. Seedlings were transferred to individual 3-inch pots in the greenhouse. All plants were sprayed with the use of a track sprayer set at 187 L/ha. The plants were sprayed with a range of pyridyloxyacetate herbicides: 200-800 g ae/ha triclopyr (Garlon 3A, Dow AgroSciences) and 200-800 g ae/ha fluoroxypyr (Starane, Dow AgroSciences). The 2,4-D metabolite resulting from AAD-13 activity, 2,4-dichlorophenol (DCP, Sigma) (at a molar equivalent to 280-2240 g ae/ha of 2,4-D, technical grade will also be tested. All applications were formulated in water. Each treatment was replicated 3-4 times. Plants were evaluated at 3 and 14 days after treatment.

CNC.O=C(O)COc1ccc(Cl)cc1Cl [2,4-D DMA]
% Injury 20-40% (individuals) ([1]; 280 g ae/ha postemergence): 4 | % Injury <20% (individuals) ([1]; 280 g ae/ha postemergence): 12 | % Injury >40% (individuals) ([1]; 280 g ae/ha postemergence): 4 | % Injury Ave ([1]; 280 g ae/ha postemergence): 21% | % Injury 20-40% (individuals) ([1]; 560 g ae/ha postemergence): 2 | % Injury <20% (individuals) ([1]; 560 g ae/ha postemergence): 17 | % Injury >40% (individuals) ([1]; 560 g ae/ha postemergence): 0 | % Injury Ave ([1]; 560 g ae/ha postemergence): 2% | % Injury 20-40% (individuals) ([1]; 1120 g ae/ha postemergence): 0 | % Injury <20% (individuals) ([1]; 1120 g ae/ha postemergence): 20 | % Injury >40% (individuals) ([1]; 1120 g ae/ha postemergence): 0 | % Injury Ave ([1]; 1120 g ae/ha postemergence): 2% | % Injury 20-40% (individuals) ([1]; 2240 g ae/ha postemergence): 3 | % Injury <20% (individuals) ([1]; 2240 g ae/ha postemergence): 14 | % Injury >40% (individuals) ([1]; 2240 g ae/ha postemergence): 3 | % Injury Ave ([1]; 2240 g ae/ha postemergence): 15% | % Injury 20-40% (individuals) ([2]; 140 g ae/ha): 0 | % Injury <20% (individuals) ([2]; 140 g ae/ha): 2 | % Injury >40% (individuals) ([2]; 140 g ae/ha): 0 | % Injury Ave ([2]; 140 g ae/ha): 8.0% | % Injury 20-40% (individuals) ([2]; 560 g ae/ha): 0 | % Injury <20% (individuals) ([2]; 560 g ae/ha): 2 | % Injury >40% (individuals) ([2]; 560 g ae/ha): 0 | % Injury Ave ([2]; 560 g ae/ha): 3.0% | % Injury 20-40% (individuals) ([2]; 2240 g ae/ha): 0 | % Injury <20% (individuals) ([2]; 2240 g ae/ha): 2 | % Injury >40% (individuals) ([2]; 2240 g ae/ha): 0 | % Injury Ave ([2]; 2240 g ae/ha): 5.0% | rate to which robust tolerance is provided ([2]; T0 tobacco): at least 2240 g ae/ha

C[C@@H](Oc1ccc(Cl)cc1Cl)C(=O)O [R-dichloroprop, R-dichlorprop]
% Injury 20-40% (individuals) ([1]; 800 g ae/ha postemergence): 0 | % Injury <20% (individuals) ([1]; 800 g ae/ha postemergence): 0 | % Injury >40% (individuals) ([1]; 800 g ae/ha postemergence): 20 | % Injury Ave ([1]; 800 g ae/ha postemergence): 100% | % Injury 20-40% (individuals) [3]: 0 | % Injury <20% (individuals) [3]: 0 | % Injury >40% (individuals) [3]: 20 | % Injury Ave [3]: 100%

Nc1c(Cl)c(F)nc(OCC(=O)O)c1Cl [fluoroxypyr]
Ave. % Injury 14DAT ([4]; 200 g ae/ha foliar-applied): 10% | Ave. % Injury 14DAT ([4]; 400 g ae/ha foliar-applied): 16% | Ave. % Injury 14DAT ([4]; 800 g ae/ha foliar-applied): 55% | rate up to which robust resistance is provided ([4]; foliar application): up to 400 g ae/ha

O=C(O)COc1nc(Cl)c(Cl)cc1Cl [triclopyr]
Ave. % Injury 14DAT ([4]; 200 g ae/ha foliar-applied): 75% | Ave. % Injury 14DAT ([4]; 400 g ae/ha foliar-applied): 90% | Ave. % Injury 14DAT ([4]; 800 g ae/ha foliar-applied): 100%
